ChEMBL document CHEMBL1914281, “Discovery of novel pyridyl carboxamides as potent CCR5 antagonists and optimization of their pharmacokinetic profile in rats” (Bioorg Med Chem Lett, 2011)

Experiments:
[1] = Metabolic stability of the compound in Sprague-Dawley rat plasma assessed as compound remaining at 1 mg/kg after 20 mins; assay type: ADME, organism-based; set-up: dose 1 mg/kg; conditions: read-out: Stability
[2] = (§1) Metabolic stability of the compound in Sprague-Dawley rat plasma assessed as compound remaining at 1 mg/kg after 45 mins; assay type: ADME, organism-based; set-up: dose 1 mg/kg; conditions: Sprague-Dawley, plasma, read-out: Stability
[3] = system: Human immunodeficiency virus 1; test: Antiviral activity against Human immunodeficiency virus 1 Ba-L by in human HOS cells assessed as inhibition of viarl entry by luciferase reporter gene assay; assay type: functional, organism-based
[4] = system: Human immunodeficiency virus 1; test: Antiviral activity against Human immunodeficiency virus 1 Ba-L in human PBL cells assessed as inhibition of viral replication; assay type: functional, organism-based
[5] = (§2) Metabolic stability of the compound in Sprague-Dawley rat plasma assessed as compound remaining at 1 mg/kg after 60 mins; assay type: ADME, organism-based; set-up: dose 1 mg/kg; conditions: Sprague-Dawley, plasma, read-out: Stability
[6] = Metabolic stability of the compound in Sprague-Dawley rat plasma assessed as compound remaining at 1 mg/kg after 30 mins; assay type: ADME, organism-based; set-up: dose 1 mg/kg; conditions: read-out: Stability
[7] = Metabolic stability of the compound in Sprague-Dawley rat plasma assessed as compound remaining at 1 mg/kg after 10 mins; assay type: ADME, organism-based; set-up: dose 1 mg/kg; conditions: read-out: Stability
[8] = system: Plasma; test: Stability of the compound in Sprague-Dawley rat plasma; assay type: ADME, cell-free
[9] = Metabolic stability of the compound in Sprague-Dawley rat plasma assessed as compound remaining at 1 mg/kg after 5 mins; assay type: ADME, organism-based; set-up: dose 1 mg/kg; conditions: read-out: Stability
[10] = Half life in Sprague-Dawley rat plasma at 1 mg/kg; assay type: ADME, organism-based; set-up: dose 1 mg/kg
[11] = Clearance in Sprague-Dawley rat plasma at 1 mg/kg; assay type: ADME, organism-based; set-up: dose 1 mg/kg
[12] = Oral bioavailability in Sprague-Dawley rat plasma at 1 mg/kg; assay type: ADME, organism-based
[13] = system: Plasma; test: as §1; assay type: ADME, organism-based; set-up: dose 1 mg/kg; conditions: in vivo, 0.75 h
[14] = system: Plasma; test: as §2; assay type: ADME, organism-based; set-up: dose 1 mg/kg; conditions: in vivo, 1 h
[15] = system: PBL; test: Cytotoxicity in human PBL cells assessed as cell death up to 1 uM; assay type: cell-based
[16] = system: HOS; test: Cytotoxicity in human HOS cells assessed as cell death up to 1 uM; assay type: cell-based

In the case of `Cc1nc(Oc2ccc(NS(C)(=O)=O)cc2)ccc1CN1CCC(N(C(=O)Nc2cnc(C(N)=O)c(F)c2)c2cccc(F)c2)CC1`, the remaining at 20 min [1] is reported as 42%, the remaining at 0.75 h [2] is reported as 12% and the IC50 [3] is reported as 1.2 nM. For the same compound, the IC50 [4] was 1.1 nM, the remaining at 1 h [5] was 4% and the remaining at 0.5 h [6] was 26%. The remaining at 10 min [7] was 71%, the Stability [8] was “Unstable” and the remaining at 5 min [9] was 86%.
`Cc1nc(Oc2ccc(NS(C)(=O)=O)cc2)ccc1CN1CCC(N(C(=O)Nc2cc(F)c(C(N)=O)cc2F)c2cccc(F)c2)CC1` showed a half-life [10] of 3.9 h, a clearance [11] of 15 mL/min/kg and a bioavailability [12] of 53%.
With `Cc1nc(Oc2ccc(NS(C)(=O)=O)cc2)ccc1CN1CCC(N(C(=O)Nc2ccc(C(N)=O)nc2C)c2cccc(F)c2)CC1` the half-life [10] was 2.8 h, the remaining at 20 min [1] was 95% and the remaining at 0.75 h [2] was 74%. For the same compound, the IC50 [3] was 3.6 nM, the IC50 [4] was 3.9 nM and the remaining at 1 h [5] was 71%. The clearance [11] was 11.7 mL/min/kg, the remaining at 0.5 h [6] was 84% and the remaining at 10 min [7] was 91%. For the same compound, the remaining at 5 min [9] was 94% and the bioavailability [12] was 49%.
Compound `Cc1cc(NC(=O)N(c2cccc(F)c2)C2CCN(Cc3ccc(Oc4ccc(NS(C)(=O)=O)cc4)nc3C)CC2)cnc1C(N)=O` has a half-life [10] of 2 h, a remaining at 20 min [1] of 94% and a Stability [13] of 123%. The IC50 [3] was 1.9 nM, the IC50 [4] was 5.3 nM and the Stability [14] was 134%. It also gave a clearance [11] of 37 mL/min/kg, a remaining at 0.5 h [6] of 120% and a remaining at 10 min [7] of 88%. It also gave a remaining at 5 min [9] of 90% and a bioavailability [12] of 30%.
With `CS(=O)(=O)Nc1ccc(Oc2ccc(CN3CCC(N(C(=O)Nc4ccc(C(N)=O)nc4)c4ccccc4)CC3)c(C3CC3)n2)cc1` the Activity [15] was “Non-toxic”, the Activity [16] was “Non-toxic” and the IC50 [3] was 1 nM. The IC50 [4] was 2.2 nM.
For `Cc1nc(Oc2ccc(NS(C)(=O)=O)cc2F)ccc1CN1CCC(N(C(=O)Nc2ccc(C(N)=O)nc2)c2cccc(F)c2)CC1`, the Activity [15] was “Non-toxic”, the Activity [16] was “Non-toxic” and the IC50 [3] was 1.2 nM. It also gave an IC50 [4] of 0.5 nM.
With `Cc1cc(NS(C)(=O)=O)ccc1Oc1ccc(CN2CCC(N(C(=O)Nc3ccc(C(N)=O)nc3)c3cccc(F)c3)CC2)c(C)n1` the Activity [15] was “Non-toxic”, the Activity [16] was “Non-toxic” and the IC50 [3] was 1 nM. It also gave an IC50 [4] of 0.6 nM.
In the case of `Cc1nc(Oc2ccc(NS(C)(=O)=O)cc2Cl)ccc1CN1CCC(N(C(=O)Nc2ccc(C(N)=O)nc2)c2cccc(F)c2)CC1`, the Activity [15] is reported as “Non-toxic”, the Activity [16] is reported as “Non-toxic” and the IC50 [3] is reported as 1.2 nM. For the same compound, the IC50 [4] was 1.1 nM.
`CS(=O)(=O)Nc1ccc(Oc2ccc(CN3CCC(N(C(=O)Nc4ccc(C(N)=O)nc4)c4ccccc4)CC3)cn2)cc1` gave an IC50 [3] of 10 nM.
With `Cc1nc(Oc2ccc(NS(C)(=O)=O)cc2)ccc1CN1CCC(N(C(=O)Nc2ccc(C(N)=O)nc2)c2cccc(F)c2)CC1` the remaining at 20 min [1] was 44%, the Activity [15] was “Non-toxic” and the remaining at 0.75 h [2] was 11%. The Activity [16] was “Non-toxic”, the IC50 [3] was 1 nM and the IC50 [4] was 0.8 nM. It also gave a remaining at 1 h [5] of 3%, a remaining at 0.5 h [6] of 25% and a remaining at 10 min [7] of 67%. For the same compound, the remaining at 5 min [9] was 85%.
With `CS(=O)(=O)Nc1ccc(Oc2ccc(CN3CCC(N(C(=O)Nc4ccc(C#N)nc4)c4ccccc4)CC3)cn2)cc1` the IC50 [3] was 44 nM.
In the case of `Cc1nc(Oc2ccc(NS(C)(=O)=O)cc2)ncc1CN1CCC(N(C(=O)Nc2ccc(C(N)=O)nc2)c2cccc(F)c2)CC1`, the Activity [15] is reported as “Non-toxic”, the Activity [16] is reported as “Non-toxic” and the IC50 [3] is reported as 2.4 nM. For the same compound, the IC50 [4] was 0.9 nM.
